In patent US8088780B2, “5,7-disubstituted thiazolo[4,5-D]pyrimidines for the selective inhibition of chemokine receptors” (AstraZeneca AB, priority 2005, dated 2012):
pKi: −log10 of the molar value.

How the values were obtained:
[1] = molecular target: T1, CX3CR1 (Homo sapiens, UniProt P49238); test: [125I]-fractalkine competition receptor binding assay on membranes of cells expressing hCX3CR1; conditions: HEKS 293 hCX3CR1 membranes
T1 construct: expressed in transfected cells
T1 sequence (P49238 1-355): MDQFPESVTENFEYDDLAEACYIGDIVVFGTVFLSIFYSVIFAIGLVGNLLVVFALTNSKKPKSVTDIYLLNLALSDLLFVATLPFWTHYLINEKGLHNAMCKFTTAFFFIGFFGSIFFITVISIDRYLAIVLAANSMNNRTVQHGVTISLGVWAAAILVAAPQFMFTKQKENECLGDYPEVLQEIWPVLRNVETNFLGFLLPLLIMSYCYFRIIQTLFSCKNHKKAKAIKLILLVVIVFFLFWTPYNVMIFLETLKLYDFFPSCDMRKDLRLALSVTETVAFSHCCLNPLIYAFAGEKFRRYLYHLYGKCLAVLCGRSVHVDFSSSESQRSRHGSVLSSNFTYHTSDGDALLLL
Description: The complete human CX3CR1 cDNA (GenBank accession number U20350) was extracted from human brain mRNA (Superscript, Life Technologies) and ligated into pCR-Blunt II TOPO vector (InVitrogen). The insert corresponding hCX3CR1 was isolated and further subcloned into pcDNA3.1zeo. Plasmid DNA was prepared using Plasmid Midi Kit (Qiagen). […] A stable clone was generated utilizing zeocin (500 μg/mL) and hygromycin (100 μg/mL) selection. For further applications the cells were maintained in Dulbecco's modified Eagle's medium/Ham's nutrient mix F12 (DMEM/F12) containing pyridoxine and supplemented with 10% (v/v) fetal bovine serum, 2 mM L-glutamine, 100 U/ml penicillin and 100 mg/ml streptomycin, 250 μg/mL zeocin and 100 μg/mL hygromycin.
Cells are grown at 37° C. and 5% CO2 and harvested at 60-80% confluence in buffer containing 10 mM Tris-HCl pH 7.4, 5 mM EDTA, 0.1 mg/mL bacitracin. The cells are centrifuged at 300×g for 10 min and the pellet is resuspended in harvesting buffer (10 mM Tris-HCl, pH 7.4, 5 mM ethylenediaminetetra-acetic acid (EDTA) and 0.1 mg/mL bacitracin), pooled and homogenised using a Dounce homogeniser. […]
Ten concentrations (2 points/log unit) of the test compounds were pre-dissolved in DMSO and added to reach a final concentration of 1% (v/v) DMSO. […] Scintillation cocktail was added and radioactivity was determined in a Packard 2500TR liquid scintillation counter.

[2] = molecular target: T2, CXCR2 (Homo sapiens, UniProt P25025); test: [125I]-hIL-8 competition binding (SPA) on membranes of cells expressing human CXCR2; conditions: receptor binding, [125I]-hIL-8, human CXCR2 membranes
T2 construct: kept under geneticin/G418 selection
T2 sequence (P25025 1-360): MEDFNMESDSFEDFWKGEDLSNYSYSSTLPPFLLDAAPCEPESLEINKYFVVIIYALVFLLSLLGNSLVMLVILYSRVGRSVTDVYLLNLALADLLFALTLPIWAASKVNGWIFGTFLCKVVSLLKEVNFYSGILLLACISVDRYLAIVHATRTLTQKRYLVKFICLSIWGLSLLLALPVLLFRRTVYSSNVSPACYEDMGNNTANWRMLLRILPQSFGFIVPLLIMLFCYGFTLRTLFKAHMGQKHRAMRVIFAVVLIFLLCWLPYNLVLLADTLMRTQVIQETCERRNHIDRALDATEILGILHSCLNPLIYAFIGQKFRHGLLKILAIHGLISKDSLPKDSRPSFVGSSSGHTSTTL
Description: Cells expressing human CXCR2 obtained from AstraZeneca Charnwood are cultured in EMEM containing Glutamax and supplemented with 10% FBS (from PAA, Austria), 1% non-essential amino acids (NEAA), 100 U/mL penicillin and 100 μg/mL streptomycin (PEST) and 500 μg/mL geneticin/G418.
Cells are grown at 37° C. and 5% CO2 and harvested at 60-80% confluence in buffer containing 10 mM Tris-HCl pH 7.4, 5 mM EDTA, 0.1 mg/mL bacitracin. The cells are centrifuged at 300×g for 10 min and the pellet is resuspended in harvesting buffer (10 mM Tris-HCl, pH 7.4, 5 mM ethylenediaminetetra-acetic acid (EDTA) and 0.1 mg/mL bacitracin), pooled and homogenised using a Dounce homogeniser. The homogenate is centrifuged in 48000×g for 10 min and resuspended in harvesting buffer using Ultra-Turrax T8. Membrane aliquots are stored at −80° C.
The non-specific binding is determined in the presence of 500 nM unlabelled hIL-8. The agonist hIL-8 (a concentration-response curve from 3 pM to 30 nM), is used as reference compound at each test occasion. […] The binding reaction is started by addition of 140 μL membrane-SPA preparation, and the samples are incubated in dark at RT for 4 h.

Row | pKi [1] | pKi [2] | SMILES
1 | 8.24 | 6.19 | CCC(Sc1nc(N[C@@H](CO)CC(C)C)c2sc(=O)[nH]c2n1)c1ccccc1 (stereo partly shown)
2 | 7.27 | 7.10 | CC(C)C[C@H](CO)Nc1nc(SCc2ccccc2)nc2[nH]c(=O)sc12 [5-(benzylthio)-7-{[(1R)-1-(hydroxymethyl)-3-methylbutyl]amino}[1,3]thiazolo[4,5-d]pyrimidin-2(3H)-one]
